# B1: MIP-3β: ligand of the specific receptor CCR7 (protein, UniProt Q99731 22-98, looked up)
# C-C motif chemokine 19: GTNDAEDCCLSVTQKPIPGYIVRNFHYLLIKDGCRVPAVVFTTLRGRQLCAPPDQPWVERIIQRLQRTSAKMKRRSS
# Experiments:
# Assay type in all cases: cell-based, human
# [1] = tested on: Langerhans cells generated in vitro; test: Chemoattraction and migration of Langerhans cells of Example 6
# [2] = tested on: dendritic cells generated in vitro (CCR6 receptor); test: Chemoattraction of undifferentiated immature dendritic cells (CCR6 functionality); details: day 6 cells of Example 4
# Experimental: The culture medium is initially supplemented with a third cytokine, namely the cytokine IL-13 at a rate of 10 ng/ml. Before 2 days of culture at the most, the same culture medium devoid of IL-13 is added up to day 6 of culture.
# Langerin+LC population = test: Maturation marker DC-LAMP expression after TNFα, Langerhans cells; details: 200 IU/ml for 48 hours from day 6
# Experimental: (§1) On day 6, the cytokine TNFα is added at a rate of 200 IU/ml for 48 h.
# (§2) The advantage of a substantially homogeneous dual population of LC and IDC is the possibility of interacting with both cell types as in the in vivo situation. To study the maturation pathways of LC and IDC generated in vitro, we analyzed the intracytoplasmic expression of maturation marker DC-LAMP on both LC and IDC. To this end, the experiments were performed according to the following protocol: • 2.10^5 cells of a mixed population comprising LC and IDC generated in vitro are incubated successively with: • either 5 microliters of anti-DC-SIGN antibody (2 micrograms/milliliter) or 10 microliters of anti-Langerin antibody (2 micrograms/milliliter), for 30 minutes at 4° C.; • 10 microliters of anti-mouse goat antibody coupled with the fluorochrom FITC (Fluorescein IsoThioCyanate) at the concentration of 1 microgram/milliliter for 30 min at 4° C.; • blocking with normal mouse serum diluted to 1/20; • 10 microliters of anti-DC-LAMP antibody coupled with fluorochrom PE (PhycoErythrin) at the concentration of 1 microgram/milliliter for 30 minutes at 4° C. • the results are expressed as the percentage of LC which are DC-LAMP positive and IDC which are DC-LAMP positive. […]
# IDC (DC-SIGN+) = test: Maturation marker DC-LAMP expression after TNFα, interstitial dendritic cells; details: 200 IU/ml for 48 hours from day 6
# Experimental: as §1, §2
# [3] = tested on: dendritic cells generated in vitro (CCR7 receptor); test: Chemoattraction of activated mature dendritic cells (CCR7 functionality); details: activated mature cells of Example 8 (TNFα more than 20 hours)
# Experimental: Within the framework of the invention, the culture medium is initially supplemented with a third cytokine, namely the cytokine IL-13 at a rate of 10 ng/ml. The culture is carried out up to day 6, irrespective of the incubation time of the cytokine IL-13.
molecule,measurement,setting,value
IL-1β: cytokine under whose effect Langerhans cells migrate,migration of Langerhans cells,[1],migrating
MIP-3α: ligand of the specific receptor CCR6,chemoattraction of Langerhans cells,[1],capable of being chemoattracted
same,chemoattraction of dendritic cells,[2],strongly chemoattracted
TNFα,percentage of LC which are DC-LAMP positive,Langerin+LC population,50%
same,expression of maturation marker DC-LAMP on IDC,IDC (DC-SIGN+),do not express
B1,chemoattraction of dendritic cells,[3],strongly chemoattracted
